Measurements from ChEMBL document CHEMBL4482311, “Modulators of Prostate-Specific G-Protein Receptor (PSGR/OR51E2) and Methods of Using Same” (2018).
Calls of active or inactive are those of the source. The calls are words filed in the database; no cut-off is given here.

Tests used:
Format in all cases: cell-based
[1] = target: T1, Olfactory receptor 51E2 (Homo sapiens) (UniProt Q9H255); test: Agonist activity at PSGR/OR51E2 in human LNCaP cells assessed as induction of change in extracellular metabolites level by measuring alanine level at 250 uM incubated for 72 hrs by GC/MS analysis
T1 sequence (whole entry): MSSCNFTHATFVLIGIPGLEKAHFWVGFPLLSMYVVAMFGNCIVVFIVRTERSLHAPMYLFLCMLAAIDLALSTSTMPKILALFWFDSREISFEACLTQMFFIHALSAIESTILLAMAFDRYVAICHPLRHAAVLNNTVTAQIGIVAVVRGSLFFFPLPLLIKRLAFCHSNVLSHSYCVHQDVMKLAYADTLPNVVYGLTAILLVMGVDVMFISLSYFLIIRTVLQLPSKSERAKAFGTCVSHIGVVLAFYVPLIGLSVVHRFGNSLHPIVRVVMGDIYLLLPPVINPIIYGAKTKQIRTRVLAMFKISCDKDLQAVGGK

[2] = target: T1, Olfactory receptor 51E2 (Homo sapiens); test: Agonist activity at PSGR/OR51E2 in human LNCaP cells assessed as induction of change in extracellular metabolites level by measuring lactic acid level at 250 uM incubated for 72 hrs by GC/MS analysis
[3] = target: T1, Olfactory receptor 51E2 (Homo sapiens); test: Agonist activity at PSGR/OR51E2 in human LNCaP cells assessed as induction of change in extracellular metabolites level by measuring glutaric acid level at 250 uM incubated for 72 hrs by GC/MS analysis
[4] = target: T1, Olfactory receptor 51E2 (Homo sapiens); test: Agonist activity at PSGR/OR51E2 in human LNCaP cells assessed as induction of change in intracellular metabolites level by measuring O-methylphosphate level at 250 uM incubated for 72 hrs by GC/MS analysis
[5] = target: T1, Olfactory receptor 51E2 (Homo sapiens); test: Agonist activity at PSGR/OR51E2 in human LNCaP cells assessed as induction of change in extracellular metabolites level by measuring glutamine level at 250 uM incubated for 72 hrs by GC/MS analysis
[6] = target: T1, Olfactory receptor 51E2 (Homo sapiens); test: Agonist activity at PSGR/OR51E2 in human LNCaP cells assessed as induction of change in extracellular metabolites level by measuring serine level at 250 uM incubated for 72 hrs by GC/MS analysis
[7] = target: T1, Olfactory receptor 51E2 (Homo sapiens); test: Agonist activity at PSGR/OR51E2 in human LNCaP cells assessed as induction of change in intracellular metabolites level by measuring ethanolamine level at 250 uM incubated for 72 hrs by GC/MS analysis
[8] = target: T1, Olfactory receptor 51E2 (Homo sapiens); test: Agonist activity at PSGR/OR51E2 in human LNCaP cells assessed as induction of change in extracellular metabolites level by measuring asparagine level at 250 uM incubated for 72 hrs by GC/MS analysis
[9] = target: T1, Olfactory receptor 51E2 (Homo sapiens); test: Agonist activity at PSGR/OR51E2 in human LNCaP cells assessed as induction of change in intracellular metabolites level by measuring serine level at 250 uM incubated for 72 hrs by GC/MS analysis
[10] = target: T1, Olfactory receptor 51E2 (Homo sapiens); test: Agonist activity at PSGR/OR51E2 in human LNCaP cells assessed as induction of change in intracellular metabolites level by measuring spermidine level at 250 uM incubated for 72 hrs by GC/MS analysis
[11] = target: T1, Olfactory receptor 51E2 (Homo sapiens); test: Agonist activity at PSGR/OR51E2 in human LNCaP cells assessed as induction of change in intracellular metabolites level by measuring fumaric acid level at 250 uM incubated for 72 hrs by GC/MS analysis
[12] = target: T1, Olfactory receptor 51E2 (Homo sapiens); test: Agonist activity at PSGR/OR51E2 in human LNCaP cells assessed as induction of change in extracellular metabolites level by measuring cystine level at 250 uM incubated for 72 hrs by GC/MS analysis
[13] = target: T1, Olfactory receptor 51E2 (Homo sapiens); test: Agonist activity at PSGR/OR51E2 in human LNCaP cells assessed as induction of change in intracellular metabolites level by measuring lactic acid level at 250 uM incubated for 72 hrs by GC/MS analysis
[14] = target: T1, Olfactory receptor 51E2 (Homo sapiens); test: Agonist activity at PSGR/OR51E2 in human LNCaP cells assessed as induction of change in extracellular metabolites level by measuring uric acid level at 250 uM incubated for 72 hrs by GC/MS analysis
[15] = target: T1, Olfactory receptor 51E2 (Homo sapiens); test: Agonist activity at PSGR/OR51E2 in human LNCaP cells assessed as induction of change in extracellular metabolites level by measuring phenylalanine level at 250 uM incubated for 72 hrs by GC/MS analysis
[16] = target: T1, Olfactory receptor 51E2 (Homo sapiens); test: Agonist activity at PSGR/OR51E2 in human LNCaP cells assessed as induction of change in extracellular metabolites level by measuring lysine level at 250 uM incubated for 72 hrs by GC/MS analysis
[17] = target: T1, Olfactory receptor 51E2 (Homo sapiens); test: Agonist activity at PSGR/OR51E2 in human LNCaP cells assessed as induction of change in intracellular metabolites level by measuring oleic acid level at 250 uM incubated for 72 hrs by GC/MS analysis
[18] = target: T1, Olfactory receptor 51E2 (Homo sapiens); test: Agonist activity at PSGR/OR51E2 in human LNCaP cells assessed as induction of change in intracellular metabolites level by measuring beta-alanine level at 250 uM incubated for 72 hrs by GC/MS analysis
[19] = target: T1, Olfactory receptor 51E2 (Homo sapiens); test: Agonist activity at PSGR/OR51E2 in human LNCaP cells assessed as induction of change in intracellular metabolites level by measuring inosine level at 250 uM incubated for 72 hrs by GC/MS analysis
[20] = target: T1, Olfactory receptor 51E2 (Homo sapiens); test: Agonist activity at PSGR/OR51E2 in human LNCaP cells assessed as induction of change in extracellular metabolites level by measuring guanine level at 250 uM incubated for 72 hrs by GC/MS analysis
[21] = target: T1, Olfactory receptor 51E2 (Homo sapiens); test: Agonist activity at PSGR/OR51E2 in human LNCaP cells assessed as induction of change in extracellular metabolites level by measuring tyrosine level at 250 uM incubated for 72 hrs by GC/MS analysis
[22] = target: T1, Olfactory receptor 51E2 (Homo sapiens); test: Agonist activity at PSGR/OR51E2 in human LNCaP cells assessed as induction of change in intracellular metabolites level by measuring threonine level at 250 uM incubated for 72 hrs by GC/MS analysis
[23] = target: T1, Olfactory receptor 51E2 (Homo sapiens); test: Agonist activity at PSGR/OR51E2 in human LNCaP cells assessed as induction of change in extracellular metabolites level by measuring glycine level at 250 uM incubated for 72 hrs by GC/MS analysis
[24] = target: T1, Olfactory receptor 51E2 (Homo sapiens); test: Agonist activity at PSGR/OR51E2 in human LNCaP cells assessed as induction of change in intracellular metabolites level by measuring pentonic-acids level at 250 uM incubated for 72 hrs by GC/MS analysis
[25] = target: T1, Olfactory receptor 51E2 (Homo sapiens); test: Agonist activity at PSGR/OR51E2 in human LNCaP cells assessed as induction of change in extracellular metabolites level by measuring xanthine level at 250 uM incubated for 72 hrs by GC/MS analysis
[26] = target: T1, Olfactory receptor 51E2 (Homo sapiens); test: Agonist activity at PSGR/OR51E2 in human LNCaP cells assessed as induction of change in intracellular metabolites level by measuring glucose-6-phosphate level at 250 uM incubated for 72 hrs by GC/MS analysis
[27] = target: T1, Olfactory receptor 51E2 (Homo sapiens); test: Agonist activity at PSGR/OR51E2 in human LNCaP cells assessed as induction of change in extracellular metabolites level by measuring threose/erythrose level at 250 uM incubated for 72 hrs by GC/MS analysis
[28] = target: T1, Olfactory receptor 51E2 (Homo sapiens); test: Agonist activity at PSGR/OR51E2 in human LNCaP cells assessed as induction of change in intracellular metabolites level by measuring malic acid level at 250 uM incubated for 72 hrs by GC/MS analysis
[29] = target: T1, Olfactory receptor 51E2 (Homo sapiens); test: Agonist activity at PSGR/OR51E2 in human LNCaP cells assessed as induction of change in intracellular metabolites level by measuring ornithine level at 250 uM incubated for 72 hrs by GC/MS analysis
[30] = target: T1, Olfactory receptor 51E2 (Homo sapiens); test: Agonist activity at PSGR/OR51E2 in human LNCaP cells assessed as induction of change in intracellular metabolites level by measuring 3-phosphoglyceric acid level at 250 uM incubated for 72 hrs by GC/MS analysis

Activity [1]: Active
Activity [2]: Active
Activity [3]: Active
Activity [4]: Active
Activity [5]: Active
Activity [6]: Active
Activity [7]: Active
Activity [8]: Active
Activity [9]: Active
Activity [10]: Active
Activity [11]: Active
Activity [12]: Active
Activity [13]: Active
Activity [14]: Active
Activity [15]: Active
Activity [16]: Active
Activity [17]: Active
Activity [18]: Active
Activity [19]: Active
Activity [20]: Active
Activity [21]: Active
Activity [22]: Active
Activity [23]: Active
Activity [24]: Active
Activity [25]: Active
Activity [26]: Active
Activity [27]: Active
Activity [28]: Active
Activity [29]: Active
Activity [30]: Active
SMILES: COc1ccc(NC=O)c(C(=O)CCNC(C)=O)c1
